Measured values as given in US8338624B2, “Isoflavone derivatives and uses thereof” (Yeda Research and Development Co., Ltd., priority 2007, dated 2012).

Assays:
[1] = tested on: EKVX non small lung cancer cell line; assay: NCI In Vitro Cell Line Screening, EKVX; assay type: cell-based; conditions: Homo sapiens, read-out: log10 GI50 (converted)
Method: (§1) An in vitro cell line screen for the t-boc derivative of daidzein (compound 9) was performed at the NCI/NIH US utilizing the In Vitro Cell Line Screening Project (IVCLSP) (National Cancer Institute, Developmental Therapeutics Program, Information Technology Branch, Rockville, Md., USA).
(§2) The operation of this screen utilized 60 different human tumor cell lines, representing leukemia, melanoma and cancers of the lung, colon, brain, ovary, breast, prostate, and kidney. […] Using these algorithms, it is possible to assign a putative mechanism of action to a test compound, or to determine that the response pattern is unique and not similar to that of any of the standard prototype compounds included in the NCI database.
(§3) To facilitate analysis of the data, three endpoints were calculated for each cell line: The GI50 value, which is the negative log10 of the concentration required to inhibit the growth of that cell line by 50% (relative to untreated cells); TGI, the negative log10 of minimum concentration that causes total growth inhibition; and LC50, which reflects the negative log10 concentration needed to kill 50% of the cells. A Mean Graph was used as a way of easily visualizing the results from all 60 cell lines at once. To generate this graph, the mean of GI50 values across all 60 cell lines was calculated. […]

MLS ovarian cancer cells = assay: DNA synthesis by [3H]-thymidine incorporation, MLS cells; assay type: cell-based, human
Method: (§4) Cells were cultured in MEM supplemented with 10% FCS and antibiotics. Cells were grown to subconfluence and then treated with various hormones or agents as described by Somjen et al. (Somjen et al., 1998). The cells were characterized in terms of expression of mRNAs for estrogen […] by real time PCR, and the results are summarized in Table 1. N87, 320DM and H295R cells expressed mRNAs for both ERs. The ratio of ERα to ERβ was 1:8.5, 1:30 and 1:1.8 in N87, 320DM and H295R cells, respectively. Ovarian A2780 and prostate C4-24 cells expressed mainly mRNA for ERβ, and the ratio of ERβ to ERα was 300:1 and 70:1, respectively. MLS ovarian cells expressed mRNA only for ERβ. The ratio of ERα to ERβ in T47D cells has been reported to be 9:1.
(§5) [^3H]-Thymidine incorporation into DNA was used for the assessment of the various effects (proliferative or inhibitory) of various isoflavones, isoflavone derivatives and known cytotoxic drugs in the above-mentioned cells. Cells were grown until subconfluence using conditions described in Somjen et al. (Somjen et al., 1998) and then treated with various agents for 24 or 48 h as indicated. At the end of incubation, [^3H]-thymidine was added for two hours. Cells were then treated with 10% ice-cold trichloroacetic (TCA) for 5 min and washed twice with 5% TCA and then with cold ethanol. The cellular layer was dissolved in 0.3 ml of 0.3 M NaOH, aliquots were taken for counting radioactivity, and [^3H]-thymidine incorporation into DNA was calculated.

[2] = tested on: T47D mammary cancer cells; assay: DNA synthesis by [3H]-thymidine incorporation, T47D cells; assay type: cell-based, human; conditions: Homo sapiens
Method: as §4, §5

[3] = tested on: A2780 ovarian cancer cells; assay: DNA synthesis by [3H]-thymidine incorporation, A2780 cells; assay type: cell-based, human; conditions: compound at 3 μM
Method: as §4, §5

[4] = tested on: H295R adrenocarcinoma cells; assay: DNA synthesis by [3H]-thymidine incorporation, H295R cells; assay type: cell-based, human
Method: as §4, §5

[5] = tested on: OVCAR-4 ovarian cancer cell line; assay: NCI In Vitro Cell Line Screening, OVCAR-4; assay type: cell-based; conditions: Homo sapiens, read-out: log10 GI50 (converted)
Method: as §1, §2, §3

CC(C)(C)OC(=O)NCCCCCCNC(=O)COc1ccc2c(=O)c(-c3ccc(O)cc3)coc2c1 [Compound 9]
GI50 [1]: 1950 nM | incubation time at which plateau of inhibition of DNA synthesis was reached (MLS ovarian cancer cells): 72 h | DNA synthesis, ratio experimental/control (E/C) (MLS ovarian cancer cells; 9 (0.3 μM) + E2 30 nM): 0.96 ± 0.24 | DNA synthesis, ratio experimental/control (E/C) (MLS ovarian cancer cells; 9 (0.3 μM) + E2 0.3 μM): 2.39 ± 0.07 | DNA synthesis (% of control) (MLS ovarian cancer cells; 9 at 0.3 μM + 25 μM Z-VADFK): 132% | DNA synthesis, ratio experimental/control (E/C) (MLS ovarian cancer cells; 9 at 0.3 μM + Z-VADFK (25 μM)): 1.32 ± 0.26 | suppression of the proliferative effect of estradiol (MLS ovarian cancer cells; 9 at 0.3 μM + estradiol 0.3 μM): could not suppress its proliferative effect | DNA synthesis, ratio experimental/control (E/C) (MLS ovarian cancer cells; 9 at 0.3 μM alone (Table 3)): 0.61 ± 0.10 | DNA synthesis, ratio experimental/control (E/C) (MLS ovarian cancer cells; 9 at 0.3 μM alone (Table 4)): 0.74 ± 0.11 | DNA synthesis, ratio experimental/control (E/C) (MLS ovarian cancer cells; 9 at 3 μM + Z-VADFK 25 μM): 0.76 ± 0.16 | effect of apoptosis inhibitor on inhibition by 9 (MLS ovarian cancer cells; 9 at 3 μM + Z-VADFK 25 μM): capable of reversing the inhibitory effect of 9 on DNA synthesis | DNA synthesis, ratio experimental/control (E/C) (MLS ovarian cancer cells; 9 at 3 μM alone (Table 4)): 0.44 ± 0.14 | effect on [3H]-thymidine incorporation into DNA (MLS ovarian cancer cells; 15 to 6000 nmol/l): dose dependent decreases | inhibition at 0.3 µM (MLS ovarian cancer cells; Homo sapiens, 9 at 0.3 μM alone): 26% | inhibition at 3 µM (MLS ovarian cancer cells; Homo sapiens, 9 at 3 μM alone): 56% | DNA synthesis, ratio experimental/control (E/C) (MLS ovarian cancer cells; compound at 3 μM): 0.03 ± 0.07 | DNA synthesis (% of control) (MLS ovarian cancer cells; estradiol 30 nM + 0.3 μM compound 9): 96% | inhibition at 10 µM [2]: 24 to 40% | DNA synthesis, ratio experimental/control (E/C) [3]: 0.1 ± 0.15 | inhibition at 3 µM ([4]; Homo sapiens, NCI-H295R, at 3 μM, read-out: inhibition of DNA synthesis / growth): 92% | DNA synthesis, ratio experimental/control (E/C) ([4]; compound at 3 μM): 0.08 ± 0.21 | GI50 [5]: 407 nM
